Data published in patent US6887847B2, “Virus derived antimicrobial peptides” (University of Pittsburgh, priority 2001, dated 2005).
In brackets after ≈: the same amount, converted by molar mass. Read-outs that look alike come from different tables or passages of the source. Residues, ends and D or L forms follow the SMILES beside them.

Assays:
[1] = molecular target: Ca^2+-saturated calmodulin (Homo sapiens, UniProt P0DP23); conditions: host cell Ca^2+-saturated calmodulin; cited from earlier work
[2] = tested on: Staphylococcus aureus; conditions: 1×10^5 colony-forming units; cited from earlier work
[3] = tested on: diverse gram-negative and -positive bacterial isolates; conditions: cited from earlier work
[4] = tested on: Pseudomonas aeruginosa; format: cell-based
From the text: (§1) The assays for growth inhibition of a microbial target can be used to derive a minimum bactericidal concentration (MBC) value for the peptide, i.e., the concentration of peptide required to kill 99.9% of the microbial sample being tested. This value is well known to those in the art as representative of the effectiveness of a particular antimicrobial agent (e.g., an antibiotic) against a particular organism or group of organisms. In assays to detect the MBC of a peptide, growth inhibition of a bacterial population also can be measured with reference to the number of colony forming units (cfu) after exposure to a peptide relative to a control experiment without a peptide.
(§2) Bacterial lysis assay. Bacterial lysis assays were conducted in a manner similar to that described previously (Lehrer, R. I., M. E. Selsted, D. Szklarek, and F. J. 1983. Infect. Immun. 42: 10-4, 1983; Miller, M. A., R. F. Garry, J. M. Jaynes, and R. C. Montelaro, AIDS Res Hum Retroviruses 7: 511-519, 1991). Bacterial suspensions were cultured in Luria-Bertani Broth to mid-log growth phase and washed by two cycles of centrifugation and suspension in 10 mM phosphate buffer. The Abs600 of the suspension was adjusted with 10 mM phosphate buffer such that, upon dilution, 5-10×10^5 cfu/mL would be treated in the assay. Bacteria were incubated for 1 h with two-fold dilutions of peptides (100 μM to 100 nM) in 96-well plates using 10 mM phosphate buffer, pH 7.2, as a diluent. Ten-fold dilutions of bacteria were performed to 1:1000; a 100 μl aliquot from each condition was spread on the surface of tryptic soy agar plates (Difco, Detroit, Mich.) which were incubated overnight. Colonies of surviving bacteria (cfu, colony-forming units) were counted and compared to untreated controls to determine the amount of peptide-induced killing under each condition. Log killing is defined as the log of the ratio of cfu present before and after treatment with peptide. The minimal bactericidal concentration, MBC, is the peptide concentration at which 99.9% (three log) killing is achieved (Pearson et al., Antimicrob. Agents Chemother. 18: 699-708, 1980).
(§3) A limitation of many host-derived antimicrobial peptides is their decreased activity at physiologic (150 mM) NaCl concentration. See Friedrich et al., Antimicrobial Agents and Chemotherapy 43:1542-1548. The peptides WLSA-5 (SEQ ID NO:3) and LL37 were tested against the two index strains at physiologic NaCl. […] The activity of eLLPs and LBUs of this invention were compared to an expanded list of clinical bacterial isolates. These are summarized in Table 2 by comparing their MBCs in phosphate buffer alone (low salt) and phosphate buffer containing 150 mM NaCl (physiologic conditions). Inspection of this table would lead one skilled in the art to conclude that the activity of eLLPs and LBUs compare favorably to the host derived antimicrobial peptides as it relates to the spectrum and potency of antimicrobial activity.

[5] = tested on: Staphylococcus aureus; test: Bacterial lysis (broth dilution) assay, MBC; format: cell-based
From the text: as §1, §2, §3

[6] = tested on: Methicillin Resistant S. aureus; format: cell-based, Staphylococcus aureus; conditions: 0 mM NaCl (phosphate buffer, low salt)
From the text: as §1
Bacterial lysis assay. Bacterial lysis assays were conducted in a manner similar to that described previously (Lehrer, R. I., M. E. Selsted, D. Szklarek, and F. J. 1983. Infect. Immun. 42: 10-4, 1983; Miller, M. A., R. F. Garry, J. M. Jaynes, and R. C. Montelaro, AIDS Res Hum Retroviruses 7: 511-519, 1991). Bacterial suspensions were cultured in Luria-Bertani Broth to mid-log growth phase and washed by two cycles of centrifugation and suspension in 10 mM phosphate buffer. […] Colonies of surviving bacteria (cfu, colony-forming units) were counted and compared to untreated controls to determine the amount of peptide-induced killing under each condition. […]

[7] = Rabbit joint model of septic arthritis; format: in vivo, New Zealand white rabbit; conditions: peptide administered alone, all animal experiments
From the text: We have extended these findings to a septic arthritis animal model. In this study joint sepsis was induced by inoculating one knee of a 2.5 Kg New Zealand white rabbit with 1×10^5 colony forming units of a clinical S. aureus isolate, a strain resistant to penicillin but sensitive to methicillin, cephalosporins, and clindamycin. Using this model, symptoms of septic arthritis (e.g., degradation of the synovium) were monitored and the ability of antimicrobial agents to limit the degeneration of the joint post-infection can be assessed. In this application the bacterial infection is allowed to establish for 1 h. At this point the joint was accessed and increasing concentrations of LSA-5 (SEQ ID NO:2) (0, 50, 100, and 200 μM) in phosphate buffer (PB) was administered intraarticularly. The concentration of bacteria associated with joint fluid was established at time 0 and 1 h post LSA-5 (SEQ ID NO:2) instillation by plating dilutions of the synovial fluid on LB agar.
This was compared with multiple injections of a standard 0.35% neomycin or a combination of neomycin and LSA-5 (SEQ ID NO:2). Administration of each of these formulations was performed intraarticularly at time 0,1, and 2 h.

[8] = 0 mM NaCl (phosphate buffer, low salt)

Structure (SMILES) | calmodulin binding affinity [1] | time to nearly sterilize suspension [2] [s] | antibacterial activity compared with magainin-2 [3] | MBC [4, 8] [µM] | MBC ([4]; 150 mM NaCl (physiologic)) [µM] | MBC [5, 8] [µM] | MBC ([5]; 150 mM NaCl (physiologic)) [µM] | MBC [6] [µM] | adverse toxicity [7]
CC[C@H](C)[C@H](NC(=O)[C@H](C)NC(=O)[C@H](CCCNC(=N)N)NC(=O)[C@H](CS)NC(=O)[C@H](C)NC(=O)CNC(=O)[C@H](CCC(N)=O)NC(=O)[C@@H](NC(=O)[C@@H](NC(=O)[C@H](CCC(=O)O)NC(=O)[C@@H](NC(=O)[C@@H](NC(=O)[C@@H](N)CCCNC(=N)N)C(C)C)[C@@H](C)CC)C(C)C)C(C)C)C(=O)N[C@@H](CCCNC(=N)N)C(=O)N[C@@H](Cc1c[nH]cn1)C(=O)N[C@H](C(=O)N1CCC[C@H]1C(=O)N[C@@H](CCCNC(=N)N)C(=O)N[C@@H](CCCNC(=N)N)C(=O)N[C@H](C(=O)N[C@@H](CCCNC(=N)N)C(=O)N[C@@H](CCC(N)=O)C(=O)NCC(=O)N[C@@H](CC(C)C)C(=O)N[C@@H](CCC(=O)O)C(=O)N[C@@H](CCCNC(=N)N)C(=O)N[C@H](C(=O)N[C@@H](CC(C)C)C(=O)O)[C@@H](C)CC)[C@@H](C)CC)[C@@H](C)CC [LLP1] (H-RVIEVVQGACRAIRHIPRRIRQGLERIL-OH; N-terminus and C-terminus assumed) | near nanomolar affinity | ≤ 60 | equal to, or more potent than magainin-2 | – | – | – | – | – | –
CC[C@H](C)[C@H](NC(=O)[C@H](C)NC(=O)[C@H](CCCNC(=N)N)NC(=O)[C@H](CS)NC(=O)[C@H](C)NC(=O)[C@H](CCCNC(=N)N)NC(=O)[C@H](CCC(N)=O)NC(=O)[C@@H](NC(=O)[C@@H](NC(=O)[C@H](CCCNC(=N)N)NC(=O)[C@@H](NC(=O)[C@@H](NC(=O)[C@@H](N)CCCNC(=N)N)C(C)C)[C@@H](C)CC)C(C)C)C(C)C)C(=O)N[C@@H](CCCNC(=N)N)C(=O)N[C@@H](Cc1c[nH]cn1)C(=O)N[C@H](C(=O)N[C@H](C(=O)N[C@@H](CCCNC(=N)N)C(=O)N[C@@H](CCCNC(=N)N)C(=O)N[C@H](C(=O)N[C@@H](CCCNC(=N)N)C(=O)N[C@@H](CCC(N)=O)C(=O)NCC(=O)N[C@@H](CC(C)C)C(=O)N[C@@H](CCCNC(=N)N)C(=O)N[C@@H](CCCNC(=N)N)C(=O)N[C@H](C(=O)N[C@@H](CC(C)C)C(=O)N[C@@H](CCCNC(=N)N)C(=O)N[C@H](C(=O)N[C@H](C(=O)O)C(C)C)C(C)C)[C@@H](C)CC)[C@@H](C)CC)C(C)C)[C@@H](C)CC [LSA-5] (H-RVIRVVQRACRAIRHIVRRIRQGLRRILRVV-OH) | – | – | – | 0.8 | 0.8 (≈ 3.06 µg/mL) | 1 | 1 (≈ 3.82 µg/mL) | 0.15 | no adverse toxicity was observed
